Laboratory results taken from PubChem BioAssay AID2060497 (Molecular Pharmacology Branch, DTP, NCI, 2025).

System: 317291-083-R-J1-PDC complex spheroids, viability
Assay: Anticancer human tumor 317291-083-R-J1-PDC patient-derived soft tissue sarcoma cell line growth inhibition [GQUAD]
Details: for IC50: curve of first compound; for viability, T/C: stronger effect = lower value; active means viability on the fitted dose curve at most 10% of control; inactive means the rest
Description: DNA G-quadruplex Stabilizer Agents in Combinations in Complex Spheroids
A high-throughput screen of multi-cell type tumor spheroids was designed to identify active combinations of DNA G-quadruplex stabilizer agents and targeted small molecules. Complex spheroids include a stromal component modeled by human endothelial cells (HUVEC) and fibroblasts modeled by human mesenchymal stem cells (MSCs). The concentration ranges selected for each drug and investigational agent were based upon clinically achievable concentrations if the clinical Cmax of the agent was known.
Compounds. The drugs and investigational agents: pidnarulex (CX-5461; NSC782164), APTO-253 (NSC789042), BRACO-19 (NSC847499), peposertib (NSC802822), ceralasertib (NSC780249), elimusertib (NSC800525), camonsertib (NSC841442), AZD-1390 (NSC803789), olaparib (NSC753686), talazoparib (NSC767125), ART-558 (NSC835418), sotorasib (NSC818433), MRTX-1133 (NSC836407), SN-38 (NSC673596), topotecan (NSC609699), etoposide (NSC141540), doxorubicin (NSC123127), gemcitabine (NSC613327), 5-fluorouracil (NSC19893), paclitaxel (NSC125973), vemurafenib (NSC761431), panobinostat (NSC761190), R-306465 (JNJ-16241199; NSC773264), adavosertib (NSC754352), TP-3654 (NSC805149), carboplatin (NSC241240), KSQ-4279 (NSC840948), and staurosporine (NSC755774) were obtained from the National Cancer Institute (NCI) Developmental Therapeutics Program Chemical Repository (34). The FDA-approved anticancer drug set is available from the NCI Developmental Therapeutics Program. […] The stock solutions were prepared in dimethyl sulfoxide (DMSO, Sigma-Aldrich, St. Louis, MO, cat. D2650) at 800-fold the tested concentration and stored at -70 degrees C prior to their use. All drugs and investigational agents were tested over a range starting from a high concentration at or near the clinical Cmax and decreasing in half-log increments. If the clinical Cmax for an agent had not been determined, the highest concentration tested was 10 microM.
2.3 Cell Culture. All cells were maintained in an incubator at 37 degrees C and 5% CO2 with 95% humidity. The PDC lines were cultured according to standard operating procedures established by the NCI PDMR. All PDCs were thawed and cultured in Matrigel-coated flasks prepared with a working solution of 1X Ham's F-12 nutrient mix, without supplementation (Invitrogen, cat. 11765054), 100 U/mL penicillin-streptomycin (Invitrogen, cat. 15140122), and 2.5% Matrigel (Corning Inc., cat. 354248) for the first three passages. The 857933-349-R-J2-PDC line was cultured in 6C/Colon 1B media, which includes advanced DMEM/F-12 (Thermo Fisher Scientific, cat. 12634028), 10 mM HEPES (Thermo Fisher Scientific, cat. 15630080), 1X GlutaMAX supplement (Thermo Fisher Scientific, cat. 35050061), 0.1 mg/mL primocin (InvivoGen, cat. ant-pm-2), 10% defined fetal bovine serum, heat inactivated (HyClone Laboratories Inc., cat. SH30070.03HI), 50% L-WRN conditioned media (ATCC, cat. CRL-3276), 1.25 mM N-Acetyl-L-cysteine (Sigma-Aldrich, cat. A9165), 10 mM nicotinamide (Sigma-Aldrich, cat. N0636), 1X B-27 supplement (Thermo Fisher Scientific, cat. 17504044), 1X N-2 supplement (Thermo Fisher Scientific, cat. 17502048), 10 microM Y-27632 dihydrochloride (Tocris Bioscience, cat. 1254), and 50 ng/mL human EGF recombinant protein (Thermo Fisher Scientific, cat. PHG0311). The 485176-168-R4-J1-PDC line was cultured in Panc media, which includes all 6C/Colon 1B media components plus 100 ng/mL human FGF-10 (Thermo Fisher Scientific, cat. 100-26), 500 nM SB-431542 (Selleckchem, cat. S1067), and gastrin (Tocris, cat. 3006).
[…]

[1] = second compound 0.0316 µM, first compound 0.0316 µM
[2] = second compound 0.0316 µM, first compound 0.1 µM
[3] = second compound 0.0316 µM, first compound 0.316 µM
[4] = second compound 0.0316 µM, first compound 1 µM
[5] = second compound 0.0316 µM, first compound 3.16 µM
[6] = second compound 0.0316 µM, first compound 10 µM
[7] = second compound 0.1 µM, first compound 0.0316 µM
[8] = second compound 0.1 µM, first compound 0.1 µM
[9] = second compound 0.1 µM, first compound 0.316 µM
[10] = second compound 0.1 µM, first compound 1 µM
[11] = second compound 0.1 µM, first compound 3.16 µM
[12] = second compound 0.1 µM, first compound 10 µM
[13] = second compound 0.316 µM, first compound 0.0316 µM
[14] = second compound 0.316 µM, first compound 0.1 µM
[15] = second compound 0.316 µM, first compound 0.316 µM
[16] = second compound 0.316 µM, first compound 1 µM
[17] = second compound 0.316 µM, first compound 3.16 µM
[18] = second compound 0.316 µM, first compound 10 µM
[19] = second compound 1 µM, first compound 0.0316 µM
[20] = second compound 1 µM, first compound 0.1 µM
[21] = second compound 1 µM, first compound 0.316 µM
[22] = second compound 1 µM, first compound 1 µM
[23] = second compound 1 µM, first compound 3.16 µM
[24] = second compound 1 µM, first compound 10 µM
[25] = second compound 3.16 µM, first compound 0.0316 µM
[26] = second compound 3.16 µM, first compound 0.1 µM
[27] = second compound 3.16 µM, first compound 0.316 µM
[28] = second compound 3.16 µM, first compound 1 µM
[29] = second compound 3.16 µM, first compound 3.16 µM
[30] = second compound 3.16 µM, first compound 10 µM
[31] = second compound 10 µM, first compound 0.0316 µM
[32] = second compound 10 µM, first compound 0.1 µM
[33] = second compound 10 µM, first compound 0.316 µM
[34] = second compound 10 µM, first compound 1 µM
[35] = second compound 10 µM, first compound 3.16 µM
[36] = second compound 10 µM, first compound 10 µM
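Further: spheroids exposed to compounds for one week before readout.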
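Wherever viability, T/C is given: percent viability relative to DMSO vehicle wells taken as 100%.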

CC(C)(O)C1CCC(Nc2ccc3ncc(-c4cccc(C(F)(F)F)c4)n3n2)CC1 (centres undefined) + CN(C)c1ccc(Nc2c3ccc(NC(=O)CCN4CCCC4)cc3nc3cc(NC(=O)CCN4CCCC4)ccc23)cc1
455 nM: IC50 (second compound 0.316 µM)
789 nM: IC50 (second compound 0.0316 µM)
691 nM: IC50 (second compound 0.1 µM)
inactive: viability, T/C [1] 103% | viability, T/C [2] 106% | viability, T/C [3] 99.8% | viability, T/C [4] 37.1% | viability, T/C [7] 97.5% | viability, T/C [8] 92.2% | viability, T/C [9] 102% | viability, T/C [10] 27.6% | viability, T/C [13] 65.9% | viability, T/C [14] 65.7% | viability, T/C [15] 72% | viability, T/C [16] 11.3% | viability, T/C [19] 59.3% | viability, T/C [20] 25.4% | viability, T/C [21] 28.7%
active: viability, T/C [5] 0.9% | viability, T/C [6] 0.94% | viability, T/C [11] 0.49% | viability, T/C [12] 0.46% | viability, T/C [17] 0.66% | viability, T/C [18] 0.64% | viability, T/C [22] 3.69% | viability, T/C [23] 0.2% | viability, T/C [24] 0.13% | viability, T/C [25] 5.54% | viability, T/C [26] 1.6% | viability, T/C [27] 6.22% | viability, T/C [28] 0.39% | viability, T/C [29] 0.12% | viability, T/C [30] 0.29% | viability, T/C [31] 0.6% | viability, T/C [32] 0.45% | viability, T/C [33] 0.27% | viability, T/C [34] 0.46% | viability, T/C [35] 0.22% | viability, T/C [36] 0.31%
< 31.6 nM: IC50 (second compound 3.16 µM) | IC50 (second compound 10 µM)
44.7 nM: IC50 (second compound 1 µM)

COc1ncnc(C2CC2)c1-c1ncc2cnn(Cc3ccc(-c4nc(C(F)(F)F)cn4C(C)C)cc3)c2n1 + Cc1cnc(CNC(=O)c2c(=O)c3ccc(N4CCCN(C)CC4)nc3n3c2sc2ccccc23)cn1
inactive: viability, T/C [1] 78.3% | viability, T/C [2] 76.8% | viability, T/C [3] 71.6% | viability, T/C [4] 72.2% | viability, T/C [5] 67% | viability, T/C [6] 54.1% | viability, T/C [7] 59.5% | viability, T/C [8] 51.1% | viability, T/C [9] 47.3% | viability, T/C [10] 39.3% | viability, T/C [11] 56.1% | viability, T/C [12] 53% | viability, T/C [13] 46.6% | viability, T/C [14] 48.1% | viability, T/C [15] 63.6% | viability, T/C [16] 31.2% | viability, T/C [17] 37.4% | viability, T/C [18] 32% | viability, T/C [19] 31.3% | viability, T/C [20] 36.8% | viability, T/C [21] 44.1% | viability, T/C [22] 30.5% | viability, T/C [23] 32.3% | viability, T/C [24] 25.8% | viability, T/C [25] 20.5% | viability, T/C [26] 13.6% | viability, T/C [27] 30% | viability, T/C [28] 15.5% | viability, T/C [29] 16.2% | viability, T/C [30] 21.2%
< 31.6 nM: IC50 (second compound 1 µM) | IC50 (second compound 3.16 µM) | IC50 (second compound 10 µM)
373 nM: IC50 (second compound 0.316 µM)
active: viability, T/C [31] 0.63% | viability, T/C [32] 0.19% | viability, T/C [33] 0.22% | viability, T/C [34] 0.19% | viability, T/C [35] 0.26% | viability, T/C [36] 0.24%
> 10000 nM: IC50 (second compound 0.0316 µM)
138 nM: IC50 (second compound 0.1 µM)
